The data set is described as follows: Pharmacokinetics in clinical studies, plasma level. As to conditions: human subjects, administered in vivo in clinical studies.

SMILES strings stand for the structures.

As for `CCN(CC)CCN(Cc1ccc(-c2ccc(C(F)(F)F)cc2)cc1)C(=O)Cn1c(SCc2ccc(F)cc2)nc(=O)c2c1CCC2` [Formula II, -(N-(2-(Diethylamino)ethyl)-N-(4-(4-trifluoromethylphenyl)benzyl)-aminocarbonylmethyl)-2-(4-fluorobenzyl)thio-5,6-trimethylenepyrimidin-4-one bitartrate], the peak plasma level turned out to be 90 ng/mL.

For the origin of these results see patent US20070166777A1, “Methods for detecting lp-pla2 activity and inhibition of lp-pla2 activity” (priority 2004, published 2007).
